Results as given in patent US8742112B2, “Heterocyclic compound and its use for control of an arthropod pest” (Sumitomo Chemical Company, Limited, priority 2009, dated 2014).

How the values were obtained:
[1] = tested on: Bemisia tabaci; experiment: Test Example 4: spray on tomato seedling carrying Bemisia tabaci eggs/larvae; assay type: in vivo; conditions: 200 ppm, 10 ml/cup sprayed on tomato seedling, larvae checked after 7 days at 25° C., Formulation Example 5
Procedure: The present compounds (1), (4) to (7), (9) to (12) and (14) to (19) were formulated by the method in Formulation Example 5. This formulation was diluted with water so that the active ingredient concentration was 200 ppm, to prepare a diluted solution for test. On a tomato seedling planted in a plastic cup, Bemisia tabaci adult insects were released and allowed to lay eggs for about 24 hours. The tomato seedling was left in a greenhouse for 8 days. Thereafter, the diluted solution for test was sprayed in a proportion of 10 ml/cup. Further, this tomato seedling was placed in a greenhouse at 25° C. for 7 days. Thereafter, the number of larvae living on the tomato leaves was checked, and the control value was calculated according to the following formula. Control value (%)={1−(Cb×Tai)/(Cai×Tb)}×100 Letters in the formula represent the following meanings. Cb: insect number before treatment on non-treated area Cai: insect number in observation on non-treated area Tb: insect number before treatment on treated area Tai: insect number in observation on treated area

[2] = tested on: Aphis gossypii; experiment: Test Example 3: treatment of the foot of a cucumber seedling, then inoculation with Aphis gossypii; assay type: in vivo; conditions: 200 ppm, 5 ml at foot of cucumber seedling, inoculated after 7 days at 25° C., checked after 6 days, Formulation Example 5
Procedure: The present compound (7) was formulated by the method in Formulation Example 5. This formulation was diluted with water so that the active ingredient concentration was 200 ppm, to prepare a diluted solution for test. The diluted solution for test (5 ml) was used to treat a foot of a cucumber seedling (first true leaf spreading stage) planted in a plastic cup. This cucumber was left in a greenhouse at 25° C. for 7 days. Then; the cucumber leaf surface was inoculated with 30 Aphis gossypii (whole stage). This cucumber was further left in the greenhouse for 6 days, then, the insect number of living Aphis gossypii parasitic on the leaves of this cucumber was checked, and the control value was calculated according to the following formula. Control value (%)={1−(Cb×Tai)/(Cai×Tb)}×100 Letters in the formula represent the following meanings. Cb: insect number before treatment on non-treated area Cai: insect number in observation on non-treated area Tb: insect number before treatment on treated area Tai: insect number in observation on treated area

SMILES | Control value [1] | Control value [2]
Fc1cnccc1-c1nc2cc(C(F)(F)F)ccc2s1 [compound 1] | ≥ 90% | –
CCS(=O)(=O)c1cnccc1-c1nc2cc(C(F)(F)F)ccc2s1 [compound 7] | – | ≥ 90%
